Laboratory results reported in ChEMBL document CHEMBL4020841, “Structure Guided Lead Generation toward Nonchiral M. tuberculosis Thymidylate Kinase Inhibitors” (J Med Chem, 2018).
The source made the active and inactive calls. The rule behind the calls is not given here.

System: Mycobacterium tuberculosis
Test: Antimicrobial activity against Mycobacterium tuberculosis H37Ra ATCC 25177 harboring pSMT1 luciferase reporter plasmid up to 64 uM after 7 days by luminometric method
Type: functional

Cc1cn(C2CCN(Cc3nccc4ccccc34)CC2)c(=O)[nH]c1=O
Activity: inactive

Cc1cn(C2CCN(C(=O)c3ccc(Oc4ccccc4)cc3)CC2)c(=O)[nH]c1=O
Activity: inactive

Cc1cn(C2CCN(Cc3cccc(Oc4ccccc4)c3)CC2)c(=O)[nH]c1=O
Activity: inactive

Cc1cn(C2CCN(Cc3ccccn3)CC2)c(=O)[nH]c1=O
Activity: inactive

Cc1cn(C2CCN(Cc3ccc(C(=O)O)cc3)CC2)c(=O)[nH]c1=O
Activity: inactive

Cc1cn(C2CN(Cc3ccc(Oc4ccccc4)cc3)C2)c(=O)[nH]c1=O
Activity: inactive

Cc1cn(C2CCN(CCc3cccc(Oc4ccccc4)c3)CC2)c(=O)[nH]c1=O
Activity: inactive

Cc1cn(C2CN(Cc3cccc(Oc4ccccc4)c3)C2)c(=O)[nH]c1=O
Activity: inactive

Cc1cn(C2CCN(Cc3ccnc4ccccc34)CC2)c(=O)[nH]c1=O
Activity: inactive

Cc1cn(C2CCN(Cc3cc4ccccc4o3)CC2)c(=O)[nH]c1=O
Activity: inactive

Cc1cccc(CN2CCC(n3cc(C)c(=O)[nH]c3=O)CC2)c1
Activity: inactive

Cc1cn(C2CCN(Cc3ccc(Oc4ccccc4)cc3)CC2)c(=O)[nH]c1=O
Activity: inactive

Cc1cn(C2CCN(Cc3cc(Oc4ccccc4)c4ccc(Cl)cc4n3)CC2)c(=O)[nH]c1=O
Activity: inactive

Cc1cn(C2CCN(Cc3cnc4ccccc4c3)CC2)c(=O)[nH]c1=O
Activity: inactive

Cc1cn(C2CCN(Cc3ccco3)CC2)c(=O)[nH]c1=O
Activity: inactive

Cc1cn(C2CCN(Cc3cc4ccccc4cn3)CC2)c(=O)[nH]c1=O
Activity: inactive

Cc1cn(C2CCN(Cc3ccncc3)CC2)c(=O)[nH]c1=O
Activity: inactive

Cc1cn(C2CCN(Cc3ccoc3)CC2)c(=O)[nH]c1=O
Activity: inactive

COc1ccc(CN2CCC(n3cc(C)c(=O)[nH]c3=O)CC2)cc1
Activity: inactive

Cc1cn(C2CN(CCc3cccc(Oc4ccccc4)c3)C2)c(=O)[nH]c1=O
Activity: inactive

Cc1cn(C2CCN(Cc3ccc(Cl)cc3)CC2)c(=O)[nH]c1=O
Activity: inactive

Cc1cn(C2CCN(Cc3ccc(C#N)cc3)CC2)c(=O)[nH]c1=O
Activity: inactive

Cc1cn(C2CCN(CC3CCCCC3)CC2)c(=O)[nH]c1=O
Activity: inactive

Cc1cn(C2CCN(Cc3cccc(C(=O)O)n3)CC2)c(=O)[nH]c1=O
Activity: inactive

Cc1cn(C2CCN(Cc3cccc4ccccc34)CC2)c(=O)[nH]c1=O
Activity: inactive

Cc1cn(C2CN(CCCc3cccc(Oc4ccccc4)c3)C2)c(=O)[nH]c1=O
Activity: inactive

Cc1cn(C2CCN(Cc3ccc(N(C)C)cc3)CC2)c(=O)[nH]c1=O
Activity: inactive

Cc1cn(C2CCN(Cc3ccccc3)CC2)c(=O)[nH]c1=O
Activity: inactive

Cc1cn(C2CCN(Cc3ccc4ccccc4c3)CC2)c(=O)[nH]c1=O
Activity: inactive

Cc1cn(C2CCN(C(=O)c3cccc(Oc4ccccc4)c3)CC2)c(=O)[nH]c1=O
Activity: inactive

Cc1cn(CC2CCN(Cc3ccc(Oc4ccccc4)cc3)CC2)c(=O)[nH]c1=O
Activity: inactive

Cc1ccc(CN2CCC(n3cc(C)c(=O)[nH]c3=O)CC2)cc1
Activity: inactive

Cc1cn(C2CCN(Cc3cncc4ccccc34)CC2)c(=O)[nH]c1=O
Activity: inactive

Cc1cn(CC2CCN(Cc3cccc(Oc4ccccc4)c3)CC2)c(=O)[nH]c1=O
Activity: inactive

Cc1cn(C2CCN(Cc3cccnc3)CC2)c(=O)[nH]c1=O
Activity: inactive
